Reference: patent publication US8063043B2, “Salts of N-[6-cis-2,6-dimethylmorpholin-4-yl)pyridine-3-yl]-2-methyl-4′-(trifluoromethoxy)[1,1′-biphenyl]-3-carboxamide” (Novartis AG, priority 2008, dated 2011)
Read-outs that look alike come from different tables or passages of the source.

Test: Rat PK of suspension formulations, free form vs diphosphate salt
Assay type: in vivo
[1] = 3.0 mg/kg PO dose in suspension, mean
[2] = in vivo, 3.0 mg/kg PO dose in suspension, mean
[3] = in vivo, IV 3 mg/kg, mean, n = 2

Cc1c(C(=O)Nc2ccc(N3C[C@@H](C)O[C@@H](C)C3)nc2)cccc1-c1ccc(OC(F)(F)F)cc1 [Free base]
AUCinf/dose [1]: 171 nM·h/mg/kg | AUClast/dose [1]: 170 nM·h/mg/kg | Cmax/Dose [1]: 78.9 nM/mg/kg | AUCinf/dose (IV 3 mg/kg, mean, n = 2): 5840 nM·h/mg/kg | AUClast/dose (IV 3 mg/kg, mean, n = 2): 5830 nM·h/mg/kg | bioavailability (in vivo, 3.0 mg/kg PO dose in suspension): 3% | AUC(0-inf) [2]: 0.512 µM·h | AUC(0-t) [2]: 0.51 µM·h | tmax [2]: 30 min | Cmax (in vivo, 3.0 mg/kg PO dose in suspension, mean, read-out: C0/Cmax): 0.237 µM | AUC(0-inf) [3]: 17.5 µM·h | AUC(0-t) [3]: 17.5 µM·h | Cmax (in vivo, IV 3 mg/kg, mean, n = 2, read-out: C0/Cmax): 6.11 µM
